Results from US8609644B2, “Amino derivatives of androstanes and androstenes as medicaments for cardiovascular disorders” (priority 2006, dated 2013).
pIC50: −log10 of the molar value. Counter-ions that a name gives are not always drawn. Like-named read-outs stand apart in the source and are kept apart here.

Key:
Na+, K+-ATPase = Na+, K+-ATPase (Canis lupus familiaris, UniProt P50997); test: biochemical; set-up: species or system dog
anesthetized guinea-pig = test: Inotropic effect and lethal dose, slow intravenous infusion (over 90 minutes) in anesthetized guinea-pig; conditions: for ED80 / ED (max) / Emax: Cavia porcellus, iv, 1.5 h; for ED80: read-out: ED80 (inotropic potency, dose increasing +dP/dTmax by 80%); for ED (max): read-out: EDmax (dose inducing maximum positive inotropic effect); for Emax: read-out: Emax % increase in +dP/dTmax; for Maximum dose infused: maximum dose infused in the survived animals
[1] = dog kidney enzyme, read-out: Na+, K+-ATPase Inhibition IC50
[2] = read-out: Na+, K+-ATPase Inhibition IC50

Question: With `C=C1CC2C3CCC(=O)C3(C)CCC2C2(C)CCC(=NOCCCNC)CC12` (mixture of isomers) [I-ck, (E,Z) 3-(3-N-Methylaminopropoxyimino)-6-methyleneandrostane-17-one fumarate] as the compound, how does the pIC50 (Na+, K+-ATPase; Na+, K+-ATPase Inhibition IC50) read?
Answer: 6.24

Question: `C[C@]12CCC(=NOCCN)C[C@@H]1C[C@@H](CO)[C@@H]1[C@@H]2CC[C@]2(C)C(=O)CC[C@@H]12` (mixture of isomers) [I-bz, (E,Z) 3-(2-Aminoethoxyimino)-7α-hydroxymethylandrostane-17-one hydrochloride] was tested. Which pIC50 (Na+, K+-ATPase; [1]) did it give?
Answer: 5.96

Question: With `C/C=C1\C[C@@H]2[C@H](CC[C@]3(C)C(=O)CC[C@@H]23)[C@@]2(C)CCC(=NOCCN)C[C@H]12` (mixture of isomers) [I-bg, (E,Z) 3-(2-Aminoethoxyimino)-6-(E)-ethylidenandrostan-17-one hydrochloride] as the compound, how does the pIC50 (Na+, K+-ATPase; Na+, K+-ATPase Inhibition IC50) read?
Answer: 5.96

Question: How did the pIC50 (Na+, K+-ATPase; [1]) turn out when `C=CCON=C1CC2CC(=NOCCN)CCC2(C)C2CCC3(C)C(=O)CCC3C12` (mixture of isomers) [I-bu, (E,Z)-3-(2-Aminoethoxyimino)-7-(E)-allyloxyiminoandrostan-17-one fumarate] was run?
Answer: 5.42

Question: With `CNCCCON=C1CCC2(C)C(C1)CC1(CC1)C1C3CCC(=O)C3(C)CCC12` (mixture of isomers) [I-cv, (E,Z) 3-(3-N-Methylaminopropoxyimino)-7-(spirocyclopropane)androstan-17-one hydrochloride] as the compound, how does the pIC50 (Na+, K+-ATPase; [1]) read?
Answer: 6.13

Question: With `CC(=O)N[C@H]1C[C@@H]2[C@H](CC[C@]3(C)C(=O)CC[C@@H]23)[C@@]2(C)CCC(=NOCCN)C[C@H]12` (mixture of isomers) [I-bf, (E,Z) 3-(2-Aminoethoxyimino)-6α-acetamidoandrostan-17-one hydrochloride] as the compound, how does the pIC50 (Na+, K+-ATPase; [1]) read?
Answer: 4.35

Question: With `CNCCCON=C1CCC2(C)C(C1)C(C(=O)OC)CC1C3CCC(=O)C3(C)CCC12` (mixture of isomers) [I-cm, (Z,E) 3-(3-N-Methylaminopropoxyimino)-6α-methoxycarbonylandrostan-17-one hydrochloride] as the compound, how does the pIC50 (Na+, K+-ATPase; [1]) read?
Answer: 5.40

Question: `C[C@]12CCC(=NOCCN)CC1[C@@H](C=NO)C[C@@H]1[C@@H]2CC[C@]2(C)C(=O)CC[C@@H]12` (stereo partly drawn) [I-an, 3-(E,Z)-(2-Aminoethoxyimino)-17-oxoandrostane-6α-carbaldehyde (E,Z)-oxime fumarate] was tested. Which pIC50 (Na+, K+-ATPase; [2]) did it give?
Answer: 6.41

Question: With `C=CCON=C1CC2C3CCC(=O)C3(C)CCC2C2(C)CCC(=NOCCN)CC12` (stereo not drawn) [I-ay, (E,Z)-3-(2-Aminoethoxyimino)-6-(E)-allyloxyiminoandrostan-17-one fumarate] as the compound, how does the pIC50 (Na+, K+-ATPase; [1]) read?
Answer: 4.37

Question: `CNCCCON=C1CC[C@@]2(C)C(C1)[C@@H](CO)C(=O)[C@@H]1[C@@H]2CC[C@]2(C)C(=O)CC[C@@H]12` (stereo partly drawn) [I-ei, (E,Z) 3-(3-N-Methylaminopropoxyimino)-6α-hydroxymethylandrostane-7,17-dione fumarate] was tested. Which pIC50 (Na+, K+-ATPase; [2]) did it give?
Answer: 7.36

Question: How did the pIC50 (Na+, K+-ATPase; [2]) turn out when `C[C@]12CC[C@H](/C=C\CCN)CC1/C(=N/O)C[C@@H]1[C@@H]2CC[C@]2(C)C(=O)CC[C@@H]12` (stereo partly drawn) [I-de, 3β-(4-Aminobut-1-(Z)-enyl)-6-(E)-hydroxyiminoandrostane-17-one fumarate] was run?
Answer: 5.92

Question: `CCON=C1CC2C3CCC(=O)C3(C)CCC2C2(C)CCC(=NOCCN)CC12` (mixture of isomers) [I-ax, (E,Z)-3-(2-Aminoethoxyimino)-6-(E)-ethoxyiminoandrostan-17-one hydrochloride] was tested. Which pIC50 (Na+, K+-ATPase; [1]) did it give?
Answer: 5.77

Question: With `C[C@]12CC[C@@H](/C=C\CCCCN)CC1/C(=N/O)C[C@@H]1[C@@H]2CC[C@]2(C)C(=O)CC[C@@H]12` (stereo partly drawn) [I-dj, 3α-(6-Aminohex-1-(Z)-enyl)-6-(E)-hydroxyiminoandrostan-17-one fumarate] as the compound, how does the pIC50 (Na+, K+-ATPase; [2]) read?
Answer: 5.89

Question: With `COC(=O)C1CC2C3CCC(=O)C3(C)CCC2C2(C)CCC(=NOCCN)CC12` (mixture of isomers) [I-au, (E,Z) 3-(2-Aminoethoxyimino)-6α-methoxycarbonylandrostan-17-one hydrochloride] as the compound, how does the pIC50 (Na+, K+-ATPase; [1]) read?
Answer: 6.39

Question: How did the pIC50 (Na+, K+-ATPase; [1]) turn out when `CNCCCON=C1CCC2(C)C3CCC4(C)C(=O)CCC4C3CC3(CC3)C2C1` (mixture of isomers) [I-cp, (E,Z) 3-(3-N-Methylaminopropoxyimino)-6-(spirocyclopropane)androstan-17-one hydrochloride] was run?
Answer: 5.89

Question: `COCC1CC2C3CCC(=O)C3(C)CCC2C2(C)CCC(=NOCCN)CC12` (mixture of isomers) [I-ak, (E,Z) 3-(2-Aminoethoxyimino)-6β-methoxymethylandrostan-17-one hydrochloride] was tested. Which pIC50 (Na+, K+-ATPase; [1]) did it give?
Answer: 5.52

Question: With `CNCCCON=C1CC[C@]2(C)[C@H]3CC[C@]4(C)C(=O)CC[C@H]4[C@@H]3C/C(=N\O)[C@@]2(O)C1` (mixture of isomers) [I-cr, (E,Z) 3-(3-N-Methylaminopropoxyimino)-5α-hydroxy-6-(E)-hydroxyiminoandrostan-17-one hydrochloride] as the compound, how does the ED80 (anesthetized guinea-pig) read?
Answer: 1.21 µmol/kg

Question: What about the ED (max) (anesthetized guinea-pig) of the same compound?
Answer: 11.8 µmol/kg

Question: And the Emax (anesthetized guinea-pig)?
Answer: 180%

Question: What about the “% decrease from Emax after 20 min from the end of the infusion” value (anesthetized guinea-pig; duration of the inotropic effect) of the same compound?
Answer: 47%

Question: And the Maximum dose infused (anesthetized guinea-pig)?
Answer: 50.4 µmol/kg

Question: With `C[C@]12CC[C@H]3[C@@H](C[C@@H](C#N)[C@@]4(O)CC(=NOCCN)CC[C@]34C)[C@@H]1CCC2=O` (mixture of isomers) [I-ae, (E,Z) 3-(2-Aminoethoxyimino)-5α-hydroxy-6β-cyanoandrostane-17-one fumarate] as the compound, how does the pIC50 (Na+, K+-ATPase; [1]) read?
Answer: 4.96

Question: How did the pIC50 (Na+, K+-ATPase; Na+, K+-ATPase Inhibition IC50) turn out when `CC12CCC3C(CC(=CC#N)C4CC(=NOCCN)CCC43C)C1CCC2=O` (stereo not drawn) [I-bi, (E) 3-(2-Aminoethoxyimino)-17-oxoandrostane-6-(E)-ylideneacetonitrile hydrochloride] was run?
Answer: 5.77

Question: With `CC12CCC3C(CC(O[N+](=O)[O-])C4CC(=NOCCN)CCC43C)C1CCC2=O` (single isomer, unassigned) [I-ab, (E,Z) 3-(2-Aminoethoxyimino)-17-oxoandrostane-6β-yl nitrate fumarate] as the compound, how does the pIC50 (Na+, K+-ATPase; [1]) read?
Answer: 5.54

Question: How did the pIC50 (Na+, K+-ATPase; [2]) turn out when `C[C@]12CCC(=NOCCN)CC1C1(CC1)C[C@@H]1[C@@H]2CC[C@]2(C)C(=O)CC[C@@H]12` (stereo partly drawn) [I-bl, E,Z) 3-(2-Aminoethoxyimino)-6-(spirocyclopropane)androstane-17-one hydrochloride] was run?
Answer: 6.07

Question: How did the pIC50 (Na+, K+-ATPase; [1]) turn out when `CNCCCOC1CCC2(C)C(C1)C(CO)CC1C3CCC(=O)C3(C)CCC12` (stereo not drawn) [I-du, 3β-(3-N-Methylaminopropoxy)-6α-hydroxymethylandrostane-17-one fumarate] was run?
Answer: 5.96

Question: How did the pIC50 (Na+, K+-ATPase; Na+, K+-ATPase Inhibition IC50) turn out when `CNCCCON=C1CCC2(C)C(CC(=O)C3C4CCC(=O)C4(C)CCC32)C1` (mixture of isomers) [I-cu, (E,Z) 3-(3-N-Methylaminopropoxyimino)androstane-7,17-dione fumarate] was run?
Answer: 6.41

Question: `C=C1C[C@@H]2[C@H](CC[C@]3(C)C(=O)CC[C@@H]23)[C@@]2(C)CCC(=NOCCN)CC12` (stereo partly drawn) [I-ah, (E,Z) 3-(2-Aminoethoxyimino)-6-methyleneandrostan-17-one hydrochloride] was tested. Which pIC50 (Na+, K+-ATPase; [2]) did it give?
Answer: 7.38

Question: How did the pIC50 (Na+, K+-ATPase; [2]) turn out when `CC12CCC3C(CC(C(N)=O)C4CC(=NOCCN)CCC43C)C1CCC2=O` (mixture of isomers) [I-at, (E,Z) 3-(2-Aminoethoxyimino)-6α-carbamoylandrostan-17-one fumarate] was run?
Answer: 6.20

Question: What does the source list for `C[C@H]1O[C@@H](O[C@H]2[C@@H](O)C[C@H](O[C@H]3[C@@H](O)C[C@H](O[C@H]4CC[C@@]5(C)[C@H](CC[C@@H]6[C@@H]5C[C@@H](O)[C@]5(C)[C@@H](C7=CC(=O)OC7)CC[C@]65O)C4)O[C@@H]3C)O[C@@H]2C)C[C@H](O)[C@@H]1O` [digoxin, reference compound]?
Answer: ED80 (anesthetized guinea-pig): 0.29 µmol/kg; ED (max) (anesthetized guinea-pig): 0.65 µmol/kg; Emax (anesthetized guinea-pig): 158%; Maximum dose infused (anesthetized guinea-pig): 1.16 µmol/kg
